{
  "source": "paper PMC9667936",
  "about": "“Functional mapping of the 14-3-3 hub protein as a guide to design 14-3-3 molecular glues” (Chemical Science, 2022)",
  "key": {"14-3-3γ/ChREBP": {"biological_target": "T1, 14-3-3γ/ChREBP (Homo sapiens, UniProt P61981+Q9NP71)", "T1 construct": "made in house; host or cells: E. coli NiCo21 (DE3) for 14-3-3 gamma; ChREBP is a synthetic peptide", "T1 sequence (P61981 1-247)": "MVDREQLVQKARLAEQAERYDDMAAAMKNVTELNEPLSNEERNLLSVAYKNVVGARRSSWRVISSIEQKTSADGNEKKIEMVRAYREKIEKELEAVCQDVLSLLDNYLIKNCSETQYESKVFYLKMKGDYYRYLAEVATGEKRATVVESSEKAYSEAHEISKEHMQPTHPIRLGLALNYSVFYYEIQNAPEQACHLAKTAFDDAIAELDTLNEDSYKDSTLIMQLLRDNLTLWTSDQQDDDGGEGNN", "T1 sequence (Q9NP71 118-142 partner limits assumed)": "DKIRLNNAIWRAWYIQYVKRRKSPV", "experiment": "2D FA titration of 14-3-3/ChREBP and cooperativity analysis with thermodynamic equilibrium model", "format": "binding", "conditions": "14-3-3γ/ChREBP/2d ternary complex; 2D FA titration (20 nM FITC-2d, 0.01–10 μM ChREBP) fitted to thermodynamic equilibrium model; n = 2", "method": "(§1) a four-parameter logistic model (4PL). Each measurement was performed in two independent […]\n(§2) Fluorescence anisotropy (FA) - 2D-14-3-3/ChREBP titrations: 14-3-3γ was titrated in a 2-fold dilution series (starting at 300 µM 14-3-3γ) to 20 nM of fluorescein-labeled peptide 2d in FA buffer (10 mM HEPES pH 7.4, 150 mM NaCl, 0.1% (v/v) Tween20, 0.1% (w/v) BSA) in presence of 2-fold dilution series of unlabeled ChREBP peptide (0.01-10 µM). Dilution series were made in a polystyrene (non-binding) low-volume Corning Black Round Bottom 384-well plates (Corning 4514 or 4511). Measurements were performed directly after plate preparation, using a Tecan Infinite F500 plate reader at room temperature (lex: 485 ± 20 nm; lem: 535 ± 25 nm; mirror: Dichroic 510; flashes: 20; integration time: 50 ms; settle time:\n(§3) 0 ms; gain: optimal; and Z-position: calculated from well). Wells containing only FITC-peptide were used to set as G-factor at 35 mP. All data were analyzed using GraphPad Prism (7.00) for Windows and fitted using a four-parameter logistic model (4PL). […]\n(§4) with R = 14-3-3, P = non-natural peptide (labelled), and C = ChREBP. The framework determined based on this system description the equilibrium equations needed to determine KDII and α. […] From this the model determined the KDII and α (with 95% confidence interval) and the error-landscape of the determine parameters. […]"}, "[1]": {"system": "14-3-3γ with partner peptides (ChREBP, ERα, SOS1, B-Raf, ERRγ, USP8, PIN1, p65)", "experiment": "FA selectivity study: 14-3-3 partner peptides titrated to preformed 14-3-3γ/FITC-2d complex", "format": "binding, human", "conditions": "partner peptides titrated (from 100 μM) to 2 μM 14-3-3γ and 20 nM FITC-2d; n = 2", "method": "as §1, §2, §3, §4"}},
  "note": "Where a SMILES comes first, the peptide text is derived from it. [ ]: non-standard residue; d: D form. The star is where a group is joined. FITC = O=C1OC2(c3ccc(O)cc3Oc3cc(O)ccc32)c2ccc(NC(=S)*)cc21; Phe(4-NO2) = N[C@@H](Cc1ccc([N+](=O)[O-])cc1)C(=O)O; pS = N[C@@H](COP(=O)(O)O)C(=O)O; β3hS = N[C@@H](CO)CC(=O)O; βAla = NCCC(=O)O",
  "data": [
    {"compound": "C[C@H](NC(=O)[C@H](CCCCN)NC(=O)[C@H](Cc1ccc([N+](=O)[O-])cc1)NC(=O)CCNC(=O)C[C@H](CO)NC(=O)[C@H](Cc1ccc([N+](=O)[O-])cc1)NC(=O)[C@@H](N)COP(=O)(O)O)C(=O)N[C@@H](CCCCNC(=S)Nc1ccc2c(c1)C(=O)OC21c2ccc(O)cc2Oc2cc(O)ccc21)C(N)=O", "note": "[2d] (H-[pS][Phe(4-NO2)][β3hS][βAla][Phe(4-NO2)]KAK(FITC)-NH2)", "values": [
      {"measurement": "cooperativity factor α", "setting": "14-3-3γ/ChREBP", "value": 36},
      {"measurement": "selectivity of ternary complex formation over a panel of 14-3-3 partner peptides", "setting": "[1]", "value": "highly selective ternary complex formation"}
    ]}
  ]
}
